In PubChem BioAssay AID1645866 (Buhrlage Lab, Dana-Farber Cancer Institute and Novartis …, 2021):
pIC50: −log10 of the molar value. Active and inactive are the calls of the source.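 Rule for the calls: active = in confirmatory dose-response testing, peak deubiquitinase inhibition of 30% or more; inactive = the rest.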

These compounds were tested against Ubiquitin carboxyl-terminal hydrolase 28 (Homo sapiens) (UniProt Q96RU2) (assay: Concentration-response biochemical assay confirming initial hits as inhibitors of ubiquitin-specific protease 28 (AID 1645866)). Details: purified USP28, ubiquitin-rhodamine fluorescence, 30 min.
Chain of Ubiquitin carboxyl-terminal hydrolase 28 (Homo sapiens) (Q96RU2 whole entry, looked up): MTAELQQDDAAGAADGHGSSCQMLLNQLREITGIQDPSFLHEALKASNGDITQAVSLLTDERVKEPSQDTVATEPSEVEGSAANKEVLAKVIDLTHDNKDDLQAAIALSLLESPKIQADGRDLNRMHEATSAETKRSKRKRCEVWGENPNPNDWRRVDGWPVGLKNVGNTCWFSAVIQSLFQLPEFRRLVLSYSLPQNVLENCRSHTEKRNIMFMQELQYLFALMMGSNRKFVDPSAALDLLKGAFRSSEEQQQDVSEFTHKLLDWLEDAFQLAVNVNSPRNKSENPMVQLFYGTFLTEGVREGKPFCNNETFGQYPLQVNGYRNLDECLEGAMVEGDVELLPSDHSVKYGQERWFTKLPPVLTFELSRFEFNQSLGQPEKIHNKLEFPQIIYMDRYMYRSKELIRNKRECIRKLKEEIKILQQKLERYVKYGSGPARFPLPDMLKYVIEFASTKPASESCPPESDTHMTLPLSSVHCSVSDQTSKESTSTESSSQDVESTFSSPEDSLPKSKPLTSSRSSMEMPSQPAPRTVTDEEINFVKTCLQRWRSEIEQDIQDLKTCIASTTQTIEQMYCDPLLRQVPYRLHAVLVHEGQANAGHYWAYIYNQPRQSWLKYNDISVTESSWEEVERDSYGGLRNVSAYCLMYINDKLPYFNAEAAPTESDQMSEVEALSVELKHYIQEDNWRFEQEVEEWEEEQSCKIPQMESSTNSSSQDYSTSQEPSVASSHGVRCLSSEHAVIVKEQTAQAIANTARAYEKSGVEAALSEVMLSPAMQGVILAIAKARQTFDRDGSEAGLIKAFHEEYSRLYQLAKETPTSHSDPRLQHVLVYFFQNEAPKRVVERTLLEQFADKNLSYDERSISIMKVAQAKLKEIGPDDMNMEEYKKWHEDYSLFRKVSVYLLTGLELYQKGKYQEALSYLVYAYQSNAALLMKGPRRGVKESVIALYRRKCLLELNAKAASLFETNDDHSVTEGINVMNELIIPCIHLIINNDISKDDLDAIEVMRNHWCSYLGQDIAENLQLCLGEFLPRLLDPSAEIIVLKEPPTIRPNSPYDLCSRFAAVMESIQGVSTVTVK
In the case of `COc1ccc(NC(=O)CN2C(=O)c3ccccc3Sc3ccc(C(=O)N4CCCC4)cc32)c(OC)c1`, the pIC50 was 4.72. Work on `CCOC(=O)c1ccc(NC(=O)Cn2c(=O)n(CC(=O)NCc3ccco3)c(=O)c3ccccc32)cc1` yielded a pIC50 of 5.64. `Nc1c(-c2ccc(Cl)cc2)cnc2cc(-c3ccc(Cl)c(Cl)c3)nn12` showed a pIC50 of 5.48. `CCOc1ccc(NC(=O)Cn2c(=O)n(CCC(=O)NCc3ccco3)c(=O)c3ccccc32)cc1` was tested, and the pIC50 was 5.35. Compound `Cc1ccc(Nc2nc(O)c(CC(=O)Nc3ccccc3C)s2)cc1C` has a pIC50 of 4.78. With `Cc1ccc(-c2c(C(=O)Nc3ccc(S(N)(=O)=O)cc3)oc(=O)c3ccccc23)cc1` the pIC50 was 4.52. `O=C(NC1(O)C(=O)c2ccccc2C1=O)c1cccc2c1-c1ccccc1C2=O` gave a pIC50 of 4.49. For `C[C@@H]1O[C@@H](O[C@H]2[C@H](O[C@H]3[C@H](O[C@H]4CC[C@@]5(C)[C@@H](CC[C@]6(C)[C@@H]5CC=C5[C@@H]7CC(C)(C)CC(=O)[C@]7(C)CC[C@]56C)[C@@]4(C)CO)O[C@H](C(=O)O)[C@@H](O)[C@@H]3O)OC[C@@H](O)[C@@H]2O)[C@H](O)[C@H](O)[C@H]1O`, the pIC50 was 4.32. For `Cc1cc(-n2c(C)cc(-c3csc(N)n3)c2C)no1`, the IC50 was > 50 µM (inactive). In the case of `Cc1ccc(Cn2cc(-c3noc(-c4ccc[nH]4)n3)nn2)cc1`, the pIC50 was 4.79. With `CCOc1ccccc1-c1nc(-c2nnn(Cc3ccccc3)c2C)no1` the IC50 was > 50 µM (inactive). `COc1ccc(S(=O)(=O)N2CCC3(CC2)OC(=O)Nc2ccccc23)cc1` gave a pIC50 of 4.36. For `O=C(CN1C=NC2=NS(=O)(=O)c3ccccc3N21)Nc1cc(F)ccc1F`, the pIC50 was 4.55. With `Cc1cccc(NC(=O)CSc2nnc(-c3n[nH]c4c3CCC4)n2N)c1C` the pIC50 was 4.75. With `CCOC(=O)c1sc2nc(CC(=O)OC)nc(NCc3ccco3)c2c1C` the IC50 was > 50 µM (inactive). `CC(=O)CN1CC2(CCN(Cc3ccc(F)cc3)CC2)COc2ccccc2S1(=O)=O` was tested, and the IC50 was > 50 µM (inactive). `COc1ccc(CN2CCCC23CCCN(C(=O)CCc2cccnc2)C3)cc1F` (stereo not given) gave a pIC50 of 4.58. `Cc1ccc(-c2nc(Cn3cnc4ccccc4c3=O)cs2)cc1` showed a pIC50 of 5.30. With `O=C(Cc1noc2ccccc12)NCC(=O)Nc1ccc(Cl)cc1` the pIC50 was 4.74. `O=C(Cn1ccc2ccc(N3CCOCC3)nc21)NCc1ccccc1F` was tested, and the IC50 was > 50 µM (inactive). Work on `COc1cccc(/C=C/C(=O)Nc2ccc(C)c(Cl)c2)c1` yielded a pIC50 of 5.24. `O=C(Nc1ccccc1)c1nc(-c2cn(Cc3ccc(F)cc3)nn2)no1` was tested, and the pIC50 was 4.68. Work on `O=C(CNC(=O)OCc1ccccc1)Nc1ccc(Br)cc1C(=O)c1ccccc1Cl` yielded a pIC50 of 4.95. With `Cc1ccc(-c2ncc(C(=O)NCc3cccc(C)c3)c(-c3ccncc3)n2)cc1` the IC50 was > 50 µM (inactive). `CCCN1C=NS(=O)(=O)c2cc(C(=O)Nc3ccc(OC)c(Cl)c3)ccc21` gave a pIC50 of 4.45. Compound `O=C(COC(=O)c1cc2c(s1)CCC2)c1ccc2[nH]c(=O)[nH]c2c1` has a pIC50 of 5.19. For `Cc1noc(-c2cc(=O)n(CC(=O)NCc3ccccc3)c3ccccc23)n1`, the pIC50 was 4.60. With `Cc1ccc(-n2cc3c(N4CCCC(C(=O)NCC5CCCCC5)C4)ncnc3n2)cc1` (stereo not given) the IC50 was > 50 µM (inactive). In the case of `COc1ccc2nc(-c3ccc(NC(=O)c4cccc(OC)c4OC)cc3)cn2n1`, the pIC50 was 5.61. `O=C(NCc1ccc(F)cc1)N1CCC2(C1)Nc1cccnc1NC2=NCc1ccccc1` (stereo not given) was tested, and the IC50 was > 50 µM (inactive). `Oc1ccc(-c2nc3ccc(Cl)cn3c2NC2CCCCC2)cc1` was tested, and the pIC50 was 4.64. For `CCOC(=O)c1c(C)nc2n(Cc3ccccc3)c3ccccc3n12`, the pIC50 was 4.66. `O=C(Cn1c(=O)n(-c2ccccc2)c(=O)c2ccc(C(=O)NCc3ccc4c(c3)OCO4)cc21)NCCC1=CCCCC1` gave a pIC50 of 4.80. For `Cc1ccc(-c2nc(Cn3nnc(-c4nc(-c5ccccn5)no4)c3C)c(C)o2)cc1`, the IC50 was > 50 µM (inactive). In the case of `CCOc1ccc(NC(=O)CSc2nc3n[nH]c(C)c3c(=N)n2-c2ccc(OC)cc2)cc1`, the pIC50 was 4.47. `CC(=O)N1CCc2cc(S(=O)(=O)NCc3ccc(C)cc3)ccc21` was tested, and the IC50 was > 50 µM (inactive). With `CCc1c(C)c(C#N)c2nc3ccccc3n2c1N1CCN(C2CCCC2)CC1` the pIC50 was 4.91. `O=C(c1cscn1)N1CCC2(CC1)CC1(CO2)Nc2ccccc2-n2cccc21` (stereo not given) was tested, and the IC50 was > 50 µM (inactive). With `CCOC(=O)c1cnc(C(F)(F)F)nc1Sc1n[nH]c(-c2cccs2)n1` the IC50 was > 50 µM (inactive). With `O=C(CCn1c(=O)c2ccccc2n(Cc2cc(=O)n3ccccc3n2)c1=O)NCCc1ccc(Cl)cc1` the pIC50 was 4.71. For `O=C(c1ccco1)N1CCC2(CC1)CC1(CO2)Nc2ccccc2-n2cccc21` (stereo not given), the pIC50 was 4.46. In the case of `COC(=O)c1ccc(NC(=O)CSc2nnc(-c3ccc(O)cc3)n2Cc2ccco2)cc1`, the pIC50 was 4.47. With `O=C(COC(=O)c1ccc2ncsc2c1)Nc1ccccc1F` the IC50 was > 50 µM (inactive). With `Cc1ccc(-n2cc(C(=O)NCc3cccnc3)nn2)cc1C` the pIC50 was 4.78. For `COC(=O)c1cc(C)sc1NC(=O)c1cccc(OC)c1OC`, the IC50 was > 50 µM (inactive). Work on `CC1Cc2ccccc2N1C(=O)Cn1c(=O)cc(O)c2ccccc21` (stereo not given) yielded a pIC50 of 4.73. `COc1ccc(CCNC(=O)CSc2cn(CCNC(=O)c3ccc(F)cc3)c3ccccc23)cc1OC` showed a pIC50 of 4.55. In the case of `O=C(NCc1ccncc1)C1CCN(c2cncnc2N2CCCCC2)CC1`, the pIC50 was 5.74. With `C=C1CCC2[C@](C)(CCC[C@]2(C)C(=O)OC)[C@H]1CCc1ccoc1/C=C/C(=O)O` (stereo not given in full) the pIC50 was 4.54. In the case of `CC1CCc2c(sc3ncnc(OCc4cccc([N+](=O)[O-])c4)c23)C1` (stereo not given), the pIC50 was greater than 7.30. `NS(=O)(=O)c1cc(C(=O)OCC(=O)NC2CCCc3ccccc32)ccc1Cl` (stereo not given) was tested, and the pIC50 was 4.51. `COc1cc(NC(=O)COC(=O)Cn2cnc3ccccc32)cc(OC)c1` gave a pIC50 of 4.40. For `CC(=O)N1CCCC(c2nc(C)cc(-c3cc(F)ccc3C(=O)O)n2)C1` (stereo not given), the IC50 was > 50 µM (inactive). For `CCN1C(=O)c2cccnc2Sc2cc(NC(=O)c3ccc(Cl)s3)ccc21`, the pIC50 was 5.34. `Cc1ccc(CNC(=O)CCCn2c(=O)c3sccc3n(CC(=O)OCc3ccccc3)c2=O)cc1` gave a pIC50 of 5.67. With `O=C1COc2ccc(NC(=O)c3cnn(Cc4ccccc4)c3)cc2N1` the pIC50 was 4.59. For `O=c1[nH]c(C2CCN(S(=O)(=O)c3ccc(S(=O)(=O)NC4CCCCC4)cc3)CC2)nc2c1nnn2Cc1c(F)cccc1Cl`, the pIC50 was 4.77. `O=C1NC(=O)/C(=C/c2ccc(OC(=O)c3ccc(Cl)cc3Cl)cc2)N1` showed a pIC50 of 5.35. `O=c1c2cnc3nc(-c4cccnc4)nn3c2ccn1CCc1ccccc1` was tested, and the IC50 was > 50 µM (inactive). `COc1ccc(C(=O)Nc2sc3c(c2C(=O)NCc2cccnc2)CCCC3)cc1` was tested, and the pIC50 was 4.93. `Cc1ccc(C(=O)Nc2cc3c4c(c2)CC(=O)N4CCC3)cc1C` gave a pIC50 of 5.20. For `COc1c(O)c(O)c2c(=O)cc(-c3ccc(O)cc3)oc2c1OC`, the pIC50 was 4.57. `Cc1cccc(NC(=O)c2nn(C)c3ccccc3c2=O)c1` gave a pIC50 of 4.78. `CS(=O)(=O)N1CCCN(c2nc3cc(Cl)ccc3n3cccc23)CC1` was tested, and the IC50 was > 50 µM (inactive). For `Cc1cc(=O)c2c(O)oc(O)c3c(O)cc(=O)c1c32`, the pIC50 was 4.66. In the case of `CCC(C)Oc1cccc(C(=O)Nc2ccc(CN3CCOCC3)cc2)c1` (stereo not given), the pIC50 was 5.76. With `O=C(Nc1ccc2c(c1)OCO2)c1[nH]nc2c1CCc1ccccc1-2` the pIC50 was 5.10. `Cc1nn(-c2ccccc2)c(C)c1C(=O)OCC(=O)Nc1cccc(Br)c1` was tested, and the pIC50 was 5.56. Compound `CCOc1ccc(NC(=O)Cn2cc(C(=O)c3ccc(Cl)cc3)c(=O)c3cc(OC)ccc32)cc1` has a pIC50 of 5.36. Compound `O=C(COc1ccc(Cl)cc1Cl)Nc1ccccc1-c1nc2ccccc2[nH]1` has a pIC50 of 5.62. In the case of `Cc1sc2ncn3c(=O)n(CC(=O)Nc4ccc(F)c(Cl)c4)nc3c2c1C`, the pIC50 was 5.50. For `CCN1CCN(C(=O)CCCN(c2ccccc2)S(C)(=O)=O)CC1`, the IC50 was > 50 µM (inactive). Compound `CCOc1ccc(Nc2cc(C(=O)NCCc3ccccc3)c3ccccc3n2)cc1` has a pIC50 of 4.58. In the case of `CC1(C)Cc2c(c(-c3ccco3)nc3sc4c(SCCCc5ccccc5)ncnc4c23)CO1`, the pIC50 was 4.46. For `COC(=O)c1cc2c(ccn2C)n1CC(=O)NC1CC1`, the IC50 was > 50 µM (inactive). `COc1cccc(-n2c(=O)[nH]c3c(C(N)=O)nc(-c4ccc(OCc5ccccc5)cc4)nc32)c1` was tested, and the IC50 was > 50 µM (inactive). Work on `O=C(Nc1ccccc1Br)c1ccn(COc2ccccc2F)n1` yielded a pIC50 of 4.74. With `CN1C(=O)[C@]23CC4=CC=C[C@H](O)[C@H]4N2C(=O)[C@@]1(CO)SS3` the IC50 was > 50 µM (inactive). With `Cc1ccc(C(=O)c2cn(CC(=O)Nc3ccccc3)c3ccc(C)cc3c2=O)cc1` the pIC50 was 5.22. Compound `O=C(COC(=O)c1cc(Cl)ccc1O)Nc1ccc2c(c1)OCCO2` has a pIC50 of 4.61. With `Cc1ccc(CNC(=O)c2cnc3ccccc3n2)cc1` the IC50 was > 50 µM (inactive). Work on `CC(C)NS(=O)(=O)c1ccc(OCC(=O)N2CCC(Cc3ccccc3)CC2)cc1` yielded a pIC50 of 5.26. Compound `O=C(CSc1nc2ccncc2[nH]1)Nc1ccc(Br)cc1F` has a pIC50 of 4.58. `Cc1ccc2c(c1)c(=O)c(C(=O)c1ccccc1)cn2CC(=O)Nc1ccccc1` was tested, and the pIC50 was 4.81. With `COc1cnc(-c2ccccn2)nc1Sc1ccc(C)cc1` the IC50 was > 50 µM (inactive). Work on `O=[N+]([O-])c1ccc(NCC2COc3ccccc3O2)c(Cl)c1` (stereo not given) yielded a pIC50 of 5.43. `CC1(C)Cc2c(sc3nc(Cc4ccccc4)nc(SCC(=O)Nc4ccccc4)c23)CO1` gave a pIC50 of 5.62. For `Cc1cccc(S(=O)(=O)N2CCc3nc4ccccc4n3CC2)c1`, the pIC50 was 4.61. Work on `CC(=O)c1ccc(Cc2ncc(C(F)(F)F)cc2Cl)s1` yielded a pIC50 of 5.17. Compound `O=C(CCc1c[nH]c2ccccc12)Nc1ccc(N2CCOCC2)cc1` has a pIC50 of 4.60. `Cn1c(=O)[nH]c(=O)c2c1nc1n(CCc3ccccc3)c(-c3ccccc3)cn21` showed a pIC50 of 4.37. With `CN(C(=O)c1ccncc1)[C@H]1CC[C@@]2(C)C[C@H](c3ccccc3)C[C@](C)(O2)[C@@H]1O` the IC50 was > 50 µM (inactive). With `O=C(Nc1cccc(-c2nc3ccccc3[nH]2)c1)c1cc2ccccc2oc1=O` the pIC50 was 5.66. `CN(C(=O)c1cccc2cccnc12)c1nc2c(s1)CCc1occc1-2` gave a pIC50 of 4.57. For `O=C(CCCCn1c(=O)c2ccccc2n(Cc2ccccc2F)c1=O)NCCc1ccccc1`, the pIC50 was 4.81. For `CCN(c1ccc(NC(=O)CSc2nnc(-c3ccccc3)n2-c2ccc(OC)c(OC)c2)cc1)C(C)C`, the pIC50 was 5.21. Work on `COc1ccc2[nH]c3c(c2c1)CCN1C(=O)N(c2ccccc2C(=O)NCc2ccccc2)C(=O)[C@]31C` yielded a pIC50 of 4.33. For `Cc1ccc2c(c1)N(C)C(=O)c1cc(NC(=O)c3ccc(F)cc3)ccc1O2`, the pIC50 was 5.38. With `CC1CCc2c(sc3ncnc(NC4CCN(CC(N)=O)CC4)c23)C1` (stereo not given) the IC50 was > 50 µM (inactive). For `COc1ccccc1C(=O)N1CCc2[nH]c3ccc(F)cc3c2C1`, the IC50 was > 50 µM (inactive).
